# Test results as given in US10844032B2, “Substituted benzofuran, benzothiophene and indole Mcl-1 inhibitors” (Vanderbilt University, priority 2012, dated 2020).
# Molecular target: recombinant Mcl-1 (residues 172-327) (Homo sapiens (Human), UniProt Q07820)
# Assay: Bak peptide fluorescence polarization anisotropy competition assay, Mcl-1
# Format: binding
# Conditions: Table 2, Ki range; FITC-Bak peptide 10 nM, Mcl-1 14 nM; read-out: Ki for inhibition of Mcl-1
# recombinant Mcl-1 (residues 172-327), sequence (Q07820 172-327): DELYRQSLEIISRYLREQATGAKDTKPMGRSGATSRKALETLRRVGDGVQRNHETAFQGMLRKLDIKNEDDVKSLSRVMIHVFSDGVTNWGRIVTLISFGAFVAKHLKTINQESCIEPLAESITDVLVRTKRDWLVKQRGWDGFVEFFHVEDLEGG
row,Ki [µM],SMILES
1,≤ 0.1,"Cc1cc(OCCCc2c(C(=O)NS(=O)(=O)CCNC(=O)c3cccn3C)[nH]c3ccccc23)cc(C)c1Cl [Example 170, 3-(3-(4-chloro-3,5-dimethylphenoxy)propyl)-N-((2-(1-methyl-1H-pyrrole-2-carboxamido)ethyl)sulfonyl)-1H-indole-2-carboxamide]"

# Same assay, conditions: read-out: Ki for inhibition of Mcl-1
row,SMILES,Ki [µM]
1,"Cc1cc(OCCCc2c(C(=O)NS(=O)(=O)CCNC(=O)c3ccccc3)[nH]c3ccccc23)cc(C)c1Cl [Example 161, N-((2-benzamidoethyl)sulfonyl)-3-(3-(4-chloro-3,5-dimethylphenoxy)propyl)-1H-indole-2-carboxamide]",0.301 to 0.5
2,"Cc1cc(OCCCc2c(C(=O)NS(=O)(=O)CCNC(=O)c3ccc4ccccc4c3)[nH]c3ccccc23)cc(C)c1Cl [Example 162, N-((2-(2-naphthamido)ethyl)sulfonyl)-3-(3-(4-chloro-3,5-dimethylphenoxy)propyl)-1H-indole-2-carboxamide]",0.301 to 0.5
3,"Cc1cc(OCCCc2c(C(=O)NS(=O)(=O)CCNC(=O)c3cccc(-c4ccccc4)c3)[nH]c3ccccc23)cc(C)c1Cl [Example 165, N-((2-([1,1′-biphenyl]-3-ylcarboxamido)ethyl)sulfonyl)-3-(3-(4-chloro-3,5-dimethylphenoxy)propyl)-1H-indole-2-carboxamide]",0.301 to 0.5
4,"Cc1cc(OCCCc2c(C(=O)NS(=O)(=O)CCNC(=O)c3ccc(Oc4ccccc4)cc3)[nH]c3ccccc23)cc(C)c1Cl [Example 166, 3-(3-(4-chloro-3,5-dimethylphenoxy)propyl)-N-((2-(4-phenoxybenzamido)ethyl)sulfonyl)-1H-indole-2-carboxamide]",0.301 to 0.5
5,"Cc1cc(OCCCc2c(C(=O)NS(=O)(=O)CCNC(=O)Cc3ccc(Br)cc3)[nH]c3ccccc23)cc(C)c1Cl [Example 169, N-((2-(2-(4-bromophenyl)acetamido)ethyl)sulfonyl)-3-(3-(4-chloro-3,5-dimethylphenoxy)propyl)-1H-indole-2-carboxamide]",0.301 to 0.5
6,"Cc1cc(OCCCc2c(C(=O)NS(=O)(=O)CCNC(=O)c3nccn3Cc3ccccc3)[nH]c3ccccc23)cc(C)c1Cl [Example 173, N-((2-(1-benzyl-1H-imidazole-2-carboxamido)ethyl)sulfonyl)-3-(3-(4-chloro-3,5-dimethylphenoxy)propyl)-1H-indole-2-carboxamide]",0.501 to 0.999
7,"Cc1cc(OCCCc2c(C(=O)NS(=O)(=O)CCNC(=O)c3ccn[nH]3)[nH]c3ccccc23)cc(C)c1Cl [Example 181, N-((2-(1H-pyrazole-5-carboxamido)ethyl)sulfonyl)-3-(3-(4-chloro-3,5-dimethylphenoxy)propyl)-1H-indole-2-carboxamide]",1 to 9.99
8,"Cc1cc(OCCCc2c(C(=O)NS(=O)(=O)CCNC(=O)c3cn[nH]c3)[nH]c3ccccc23)cc(C)c1Cl [Example 182, N-((2-(1H-pyrazole-4-carboxamido)ethyl)sulfonyl)-3-(3-(4-chloro-3,5-dimethylphenoxy)propyl)-1H-indole-2-carboxamide]",1 to 9.99
9,"Cc1cc(OCCCc2c(C(=O)NS(=O)(=O)CCNC(=O)c3c(C)nn(C)c3C)[nH]c3ccccc23)cc(C)c1Cl [Example 183, 3-(3-(4-chloro-3,5-dimethylphenoxy)propyl)-N-((2-(1,3,5-trimethyl-1H-pyrazole-4-carboxamido)ethyl)sulfonyl)-1H-indole-2-carboxamide]",1 to 9.99
10,"Cc1cc(OCCCc2c(C(=O)NS(=O)(=O)CCNC(=O)c3cnn(Cc4ccccc4)c3)[nH]c3ccccc23)cc(C)c1Cl [Example 184, N-((2-(1-benzyl-1H-pyrazole-4-carboxamido)ethyl)sulfonyl)-3-(3-(4-chloro-3,5-dimethylphenoxy)propyl)-1H-indole-2-carboxamide]",1 to 9.99
11,"Cc1cc(OCCCc2c(C(=O)NS(=O)(=O)CCNC(=O)c3cc(Br)no3)[nH]c3ccccc23)cc(C)c1Cl [Example 185, 3-bromo-N-(2-(N-(3-(3-(4-chloro-3,5-dimethylphenoxy)propyl)-1H-indole-2-carbonyl)sulfamoyl)ethyl)isoxazole-5-carboxamide]",0.501 to 0.999
12,"Cc1cc(OCCCc2c(C(=O)NS(=O)(=O)CCNC(=O)c3c[nH]cn3)[nH]c3ccccc23)cc(C)c1Cl [Example 186, N-((2-(1H-imidazole-4-carboxamido)ethyl)sulfonyl)-3-(3-(4-chloro-3,5-dimethylphenoxy)propyl)-1H-indole-2-carboxamide]",1 to 9.99
13,"Cc1cc(OCCCc2c(C(=O)NS(=O)(=O)CCNC(=O)c3cncn3C)[nH]c3ccccc23)cc(C)c1Cl [Example 187, 3-(3-(4-chloro-3,5-dimethylphenoxy)propyl)-N-((2-(1-methyl-1H-imidazole-5-carboxamido)ethyl)sulfonyl)-1H-indole-2-carboxamide]",1 to 9.99
14,"Cc1cc(OCCCc2c(C(=O)NS(=O)(=O)CCNC(=O)c3cnco3)[nH]c3ccccc23)cc(C)c1Cl [Example 188, N-(2-(N-(3-(3-(4-chloro-3,5-dimethylphenoxy)propyl)-1H-indole-2-carbonyl)sulfamoyl)ethyl)oxazole-5-carboxamide]",1 to 9.99
15,"Cc1cc(OCCCc2c(C(=O)NS(=O)(=O)CCNC(=O)c3cncs3)[nH]c3ccccc23)cc(C)c1Cl [Example 189, N-(2-(N-(3-(3-(4-chloro-3,5-dimethylphenoxy)propyl)-1H-indole-2-carbonyl)sulfamoyl)ethyl)thiazole-5-carboxamide]",0.501 to 0.999

# More lines, now with the values ahead:
row,Ki [µM],SMILES
1,0.101 to 0.299,"Cc1cc(OCCCc2c(C(=O)NS(=O)(=O)CCNC(=O)/C=C/c3ccccc3)[nH]c3ccccc23)cc(C)c1Cl [Example 163, (E)-3-(3-(4-chloro-3,5-dimethylphenoxy)propyl)-N-((2-cinnamamidoethyl)sulfonyl)-1H-indole-2-carboxamide]"
2,0.101 to 0.299,"Cc1cc(OCCCc2c(C(=O)NS(=O)(=O)CCNC(=O)CCc3ccccc3)[nH]c3ccccc23)cc(C)c1Cl [Example 164, 3-(3-(4-chloro-3,5-dimethylphenoxy)propyl)-N-((2-(3-phenylpropanamido)ethyl)sulfonyl)-1H-indole-2-carboxamide]"
3,0.101 to 0.299,"Cc1cc(OCCCc2c(C(=O)NS(=O)(=O)CCNC(=O)c3cccc(Oc4ccccc4)c3)[nH]c3ccccc23)cc(C)c1Cl [Example 167, 3-(3-(4-chloro-3,5-dimethylphenoxy)propyl)-N-((2-(3-phenoxybenzamido)ethyl)sulfonyl)-1H-indole-2-carboxamide]"
4,0.101 to 0.299,"Cc1cc(OCCCc2c(C(=O)NS(=O)(=O)CCNC(=O)[C@@H]3Cc4ccccc4N3)[nH]c3ccccc23)cc(C)c1Cl [Example 168, (S)-3-(3-(4-chloro-3,5-dimethylphenoxy)propyl)-N-((2-(indoline-2-carboxamido)ethyl)sulfonyl)-1H-indole-2-carboxamide]"
5,0.101 to 0.299,"Cc1cc(OCCCc2c(C(=O)NS(=O)(=O)CCNC(=O)c3ccco3)[nH]c3ccccc23)cc(C)c1Cl [Example 171, 3-(3-(4-chloro-3,5-dimethylphenoxy)propyl)-N-((2-(furan-2-carboxamido)ethyl)sulfonyl)-1H-indole-2-carboxamide]"
6,0.101 to 0.299,"Cc1cc(OCCCc2c(C(=O)NS(=O)(=O)CCNC(=O)c3cccn3-c3ccccc3)[nH]c3ccccc23)cc(C)c1Cl [Example 172, 3-(3-(4-chloro-3,5-dimethylphenoxy)propyl)-N-((2-(1-phenyl-1H-pyrrole-2-carboxamido)ethyl)sulfonyl)-1H-indole-2-carboxamide]"
7,0.101 to 0.299,"CCc1ccc(CC(=O)NCCS(=O)(=O)NC(=O)c2[nH]c3ccccc3c2CCCOc2cc(C)c(Cl)c(C)c2)cc1 [Example 174, 3-(3-(4-chloro-3,5-dimethylphenoxy)propyl)-N-((2-(2-(4-ethylphenyl)acetamido)ethyl)sulfonyl)-1H-indole-2-carboxamide]"
8,0.101 to 0.299,"Cc1cc(OCCCc2c(C(=O)NS(=O)(=O)CCNC(=O)Cc3cn(C)c4ccccc34)[nH]c3ccccc23)cc(C)c1Cl [Example 175, 3-(3-(4-chloro-3,5-dimethylphenoxy)propyl)-N-((2-(2-(1-methyl-1H-indol-3-yl)acetamido)ethyl)sulfonyl)-1H-indole-2-carboxamide]"
9,0.101 to 0.299,"Cc1cc(OCCCc2c(C(=O)NS(=O)(=O)CCNC(=O)c3ccc4cc[nH]c4c3)[nH]c3ccccc23)cc(C)c1Cl [Example 176, N-((2-(1H-indole-6-carboxamido)ethyl)sulfonyl)-3-(3-(4-chloro-3,5-dimethylphenoxy)propyl)-1H-indole-2-carboxamide]"
10,0.101 to 0.299,"Cc1cc(OCCCc2c(C(=O)NS(=O)(=O)CCNC(=O)Cc3c[nH]c4ccccc34)[nH]c3ccccc23)cc(C)c1Cl [Example 177, N-((2-(2-(1H-indol-3-yl)acetamido)ethyl)sulfonyl)-3-(3-(4-chloro-3,5-dimethylphenoxy)propyl)-1H-indole-2-carboxamide]"
11,0.101 to 0.299,"Cc1cc(OCCCc2c(C(=O)NS(=O)(=O)CCNC(=O)c3ccc4[nH]ccc4c3)[nH]c3ccccc23)cc(C)c1Cl [Example 178, N-((2-(1H-indole-5-carboxamido)ethyl)sulfonyl)-3-(3-(4-chloro-3,5-dimethylphenoxy)propyl)-1H-indole-2-carboxamide]"
12,0.101 to 0.299,"Cc1cc(OCCCc2c(C(=O)NS(=O)(=O)CCNC(=O)CC34CC5CC(CC(C5)C3)C4)[nH]c3ccccc23)cc(C)c1Cl [Example 179, N-((2-(2-((1s,3s)-adamantan-1-yl)acetamido)ethyl)sulfonyl)-3-(3-(4-chloro-3,5-dimethylphenoxy)propyl)-1H-indole-2-carboxamide]"
13,0.101 to 0.299,"Cc1cc(OCCCc2c(C(=O)NS(=O)(=O)CCNC(=O)C34CC5CC(CC(C5)C3)C4)[nH]c3ccccc23)cc(C)c1Cl [Example 180, N-((2-((3r,5r,7r)-adamantane-1-carboxamido)ethyl)sulfonyl)-3-(3-(4-chloro-3,5-dimethylphenoxy)propyl)-1H-indole-2-carboxamide]"
14,0.101 to 0.299,"Cc1cc(OCCCc2c(C(=O)NS(=O)(=O)CCNC(=O)c3ccccn3)[nH]c3ccccc23)cc(C)c1Cl [Example 190, 3-(3-(4-chloro-3,5-dimethylphenoxy)propyl)-N-((2-(picolinamido)ethyl)sulfonyl)-1H-indole-2-carboxamide]"
